From PMC5618421, “Anti-Inflammatory Effects of Curvularin-Type Metabolites from a Marine-Derived Fungal Strain Penicillium sp. SF-5859 in Lipopolysaccharide-Induced RAW264.7 Macrophages” (Marine Drugs, 2017) come the findings set out here.

Molecules are shown by their SMILES.

Assay type in all cases: cell-based
One series deals with NF-κB. Nature of the series: DNA binding activity of NF-κB in nuclear extracts (TransAM ELISA kit). The following applies: pre-treated 3 h, LPS (1 μg/mL) 1 h. As to the method:
Figure 3 Effects of 8 on NF-κB activation (nuclear-p50 and p65) (a), IκBα phosphorylation and degradation (b), and the DNA binding activity of NF-κB (c) in LPS-treated RAW264.7 macrophages. Cells were pre-treated with the indicated concentrations of 8 for 3 h and stimulated with LPS (1 μg/mL) for 1 h. Western blot analysis (IκBα and p-IκBα in the cytoplasm and NF-κB in the nucleus) was performed as described in the Materials and Methods. Representative blots from three independent experiments are shown. A commercially-available NF-κB ELISA kit (Active Motif) was used to test the nuclear extracts and determine the degree of NF-κB binding. The data shown represent the mean values of three independent experiments. * p < 0.05 compared with the group treated with LPS.
TransAM kit (Active Motif, Carlsbad, CA, USA) was used to estimate the DNA-binding activity of NF-κB in the nuclear extract according to the manufacturer’s instructions as described previously.

The test system of another series is RAW264.7 macrophages. The experiment in a line: Cell viability (MTT) cytotoxic assay. The following applies: RAW264.7 macrophages, MTT. The procedure: RAW264.7 macrophages were maintained at a density of 5 × 10^5 cells/mL in RPMI1640 medium supplemented with 10% heat-inactivated FBS, penicillin G (100 units/mL), streptomycin ([…]), and L-glutamine (2 mM), and were incubated at 37 °C in a humidified atmosphere containing 5% CO2. For determination of cell viability, cells (1 × 10^5 cells/well in 96-well plates) were incubated with 3-(4,5-dimethylthiazol-2-yl)-2,5-diphenyltetrazolium bromide (MTT) at a final concentration of 0.5 mg/mL for 3 h, and the formazan formed was dissolved in acidic 2-propanol. The optical density was measured at 540 nm with a microplate reader (BioRad, Hercules, CA, USA). The optical density of the formazan formed in control (untreated) cells was considered to represent 100% viability.

The next series relates to IL-6 (Il6). Nature of the series: RT-qPCR of IL-6 mRNA in LPS-stimulated RAW264.7 macrophages. To be noted: pre-treated 3 h, LPS (1 μg/mL) 6 h. A general note: In qPCR the cycle at which signal appears reflects the starting amount.
Series [1] concerns NO production in LPS-treated RAW 264.7 macrophages. The experiment in a line: Inhibition of NO production (nitrite, Griess reaction) in LPS-treated RAW264.7 macrophages. To be noted: Mus musculus; RAW264.7 macrophages pre-treated 3 h with compound, then LPS (1 μg/mL) 24 h; Griess reaction. As to the method:
(§1) All isolated compounds (1–9) were evaluated for their anti-inflammatory effects. […] NO is a small molecule which is an intracellular mediator produced in various immune cells. It plays a pivotal role in the physiological and pathological condition of inflammatory symptoms. PGE2 can also regulate the immune and inflammatory responses. In this study, RAW264.7 macrophages were pre-treated for 3 h in the medium containing non-toxic concentrations (Table 2) of each compound (1–9), and then LPS (1 μg/mL) was treated for 24 h. According to the LPS stimulation of RAW264.7 macrophages, production of NO and PGE2 was increased, and the effects of all compounds on the production level of NO and PGE2 were evaluated by the Griess reaction and a PGE2 kit, respectively. […] To evaluate the impact of phenol and resorcinol groups in the curvularin-type metabolites for the anti-inflammatory activity, 5-O-methyl and 5,7,-di-O-methyl derivatives of curvularin (3a and 3b, respectively), as well as 5-O-acetyl and 5,7,-di-O-acetyl derivatives of curvularin (3c and 3d, respectively), were prepared, and the structures of 3a–3d were identified by comparison the ^1H and ^13C-NMR spectroscopic data with those of curvularin (3), and confirmed by their HRESIMS. […] The position of the methoxy group in 3a was confirmed by HMBC correlation between methoxy signal at δH 3.77 (3H, s, 5-OCH3) and δC 161.8 (C-5). The NOESY cross-peaks between acetyl proton ([…]) with H-2, H-4, and H-16 of 3c were used to identify the position of the acetyl group in 3c. […] Further systematic investigations are needed to clarify the structure activity relationship associated with the modification of the aliphatic part of the molecule.
As an indicator of NO production in RAW264.7 macrophages, production of nitrite, a stable end-product of NO oxidation, was estimated. Briefly, the concentration of nitrite in the conditioned media was determined by a method based on the Griess reaction, and the details of the assay were described previously.

The subject of series [2] is PGE2 production in LPS-treated RAW 264.7 macrophages. The experiment in a line: Inhibition of PGE2 production (PGE2 ELISA kit) in LPS-treated RAW264.7 macrophages. The following applies: Mus musculus, RAW264.7 macrophages pre-treated 3 h with compound, then LPS (1 μg/mL) 24 h. The procedure:
as §1
RPMI1640, fetal bovine serum (FBS), and other tissue culture reagents were purchased from Gibco BRL Co. (Grand Island, NY, USA). All other chemicals were obtained from Sigma-Aldrich Co. (St. Louis, MO, USA). Primary antibodies (COX-2: sc-1745; iNOS: sc-650; IκB-α: sc-371; p-IκB-α: sc-8404; p50: sc-7178; p65: sc-8008, Santa Cruz Biotechnology, Dallas, TX, USA, p-ERK: #9101; ERK: #9102; p-JNK: #9251; JNK: #9252S; p-p38: #9211; p38: 9212S, Cell Signaling Technology, Danvers, MA, USA) and secondary antibodies (mouse: ap124p; goat: ap106p; rabbit: ap132p, Millipore, Billerica MA, USA). Enzyme-linked immunosorbent assay (ELISA) kits for PGE2 were purchased from R and D Systems, Inc. (Minneapolis, MN, USA).
(In general: ELISA stands for enzyme-linked immunosorbent assay.)

Regarding `C[C@H]1CCC/C=C/C(=O)c2c(O)cc(O)cc2CC(=O)O1` [Compound 8, (10E,15S)-10,11-dehydrocurvularin], the “LPS-induced DNA binding activity of NF-κB” value in the series with NF-κB was “declined”. The “Cytotoxicity (the maximum concentration not affecting cell viability)” value in the series with RAW264.7 macrophages turned out to be 20 µM. In addition, the “mRNA expression of IL-6” value in the series on IL-6 (Il6) is “markedly suppressed the mRNA expression of IL-1β, IL-6, and TNF-α in a dose-dependent manner”. Besides, the 50% inhibitory concentration (IC50) in series [1] was 1900 ± 300 nM; in series [2] it was 2700 ± 400 nM.

The IC50 is the concentration needed to halve the response being measured.
